Test results as given in publication PMC4411097, “Pachymic Acid Inhibits Growth and Induces Apoptosis of Pancreatic Cancer In Vitro and In Vivo by Targeting ER Stress” (PLoS ONE, 2015).

Tested on: MIA PaCa-2 cells
Assay: DNA microarray analysis (Affymetrix Human PrimeView);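 for Mean (MiaPaca-2 * PA): Log2-transformed RMA normalized probe set signal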
Assay type: cell-based
[1] = gene ATF3, probeset 11753632_x_at
[2] = gene C3orf52, probeset 11724431_at
[3] = gene C3orf59, probeset 11722936_at
[4] = gene C17orf91, probeset 11740895_a_at
[5] = gene C17orf91, probeset 11740896_s_at
[6] = gene CASP1, probeset 11750553_x_at
[7] = gene CCNE2, probeset 11728301_a_at
[8] = gene CD83, probeset 11743000_at
[9] = gene CDCP1, probeset 11732062_a_at
[10] = gene CDKN1A, probeset 11715387_at
[11] = gene CEBPG, probeset 11717693_at
[12] = gene CTGF, probeset 11715440_a_at
[13] = gene CTPS, probeset 11747890_a_at
[14] = gene CTSC, probeset 11731465_a_at
[15] = gene DDIT3, probeset 11758198_s_at
[16] = gene DNAJB1, probeset 11715445_a_at
[17] = gene DNAJB1, probeset 11715446_a_at
[18] = gene EGR1, probeset 11717862_x_at
[19] = gene EGR1, probeset 11754334_s_at
[20] = gene EGR3, probeset 11736342_at
[21] = gene EIF4A2, probeset 11760707_a_at
[22] = gene EIF4A2, probeset 11760708_at
[23] = gene FOS, probeset 11734659_a_at
[24] = gene FOSL1, probeset 11760574_x_at
[25] = gene HKDC1, probeset 11722519_at
[26] = gene HKDC1, probeset 11722521_at

C=C(CC[C@@H](C(=O)O)[C@H]1[C@H](O)C[C@@]2(C)C3=C(CC[C@]12C)[C@@]1(C)CC[C@H](OC(C)=O)C(C)(C)[C@@H]1CC3)C(C)C [PA, Pachymic acid]
Fold-Change (MiaPaca-2 * PA vs. MiaPaca-2 * control) (gene AEN, probeset 11754296_a_at, MiaPaca-2): 1.50
Mean (MiaPaca-2 * PA) (gene AEN, probeset 11754296_a_at, MiaPaca-2, PA-treated): 8.26
Fold-Change (MiaPaca-2 * PA vs. MiaPaca-2 * control) [1]: 1.60
Mean (MiaPaca-2 * PA) [1]: 5.51
Fold-Change (MiaPaca-2 * PA vs. MiaPaca-2 * control) [2]: 1.60
Mean (MiaPaca-2 * PA) [2]: 7.34
Fold-Change (MiaPaca-2 * PA vs. MiaPaca-2 * control) [3]: 1.55
Mean (MiaPaca-2 * PA) [3]: 8.02
Fold-Change (MiaPaca-2 * PA vs. MiaPaca-2 * control) (gene C6orf145, probeset 11754483_a_at, MiaPaca-2): 1.51
Mean (MiaPaca-2 * PA) (gene C6orf145, probeset 11754483_a_at, MiaPaca-2, PA-treated): 7.32
Fold-Change (MiaPaca-2 * PA vs. MiaPaca-2 * control) [4]: 1.61
Mean (MiaPaca-2 * PA) [4]: 7.42
Fold-Change (MiaPaca-2 * PA vs. MiaPaca-2 * control) [5]: 1.67
Mean (MiaPaca-2 * PA) [5]: 7.56
Fold-Change (MiaPaca-2 * PA vs. MiaPaca-2 * control) (gene CAMTA1, probeset 11723154_s_at, MiaPaca-2): 1.52
Mean (MiaPaca-2 * PA) (gene CAMTA1, probeset 11723154_s_at, MiaPaca-2, PA-treated): 6.50
Fold-Change (MiaPaca-2 * PA vs. MiaPaca-2 * control) (gene CAPRIN2, probeset 11749098_a_at, MiaPaca-2): 1.50
Mean (MiaPaca-2 * PA) (gene CAPRIN2, probeset 11749098_a_at, MiaPaca-2, PA-treated): 8.43
Fold-Change (MiaPaca-2 * PA vs. MiaPaca-2 * control) (gene CASP1, probeset 11738884_x_at, MiaPaca-2): 1.53
Mean (MiaPaca-2 * PA) (gene CASP1, probeset 11738884_x_at, MiaPaca-2, PA-treated): 7.07
Fold-Change (MiaPaca-2 * PA vs. MiaPaca-2 * control) [6]: 1.55
Mean (MiaPaca-2 * PA) [6]: 7.39
Fold-Change (MiaPaca-2 * PA vs. MiaPaca-2 * control) [7]: 1.56
Mean (MiaPaca-2 * PA) [7]: 6.40
Fold-Change (MiaPaca-2 * PA vs. MiaPaca-2 * control) [8]: 1.58
Mean (MiaPaca-2 * PA) [8]: 7.70
Fold-Change (MiaPaca-2 * PA vs. MiaPaca-2 * control) (gene CDC25A, probeset 11726757_s_at, MiaPaca-2): 1.51
Mean (MiaPaca-2 * PA) (gene CDC25A, probeset 11726757_s_at, MiaPaca-2, PA-treated): 7.92
Fold-Change (MiaPaca-2 * PA vs. MiaPaca-2 * control) [9]: 1.58
Mean (MiaPaca-2 * PA) [9]: 6.86
Fold-Change (MiaPaca-2 * PA vs. MiaPaca-2 * control) [10]: 1.56
Mean (MiaPaca-2 * PA) [10]: 6.94
Fold-Change (MiaPaca-2 * PA vs. MiaPaca-2 * control) [11]: 1.57
Mean (MiaPaca-2 * PA) [11]: 9.81
Fold-Change (MiaPaca-2 * PA vs. MiaPaca-2 * control) (gene CEBPG, probeset 11717694_a_at, MiaPaca-2): 1.51
Mean (MiaPaca-2 * PA) (gene CEBPG, probeset 11717694_a_at, MiaPaca-2, PA-treated): 8.37
Fold-Change (MiaPaca-2 * PA vs. MiaPaca-2 * control) (gene CIDEB, probeset 11752838_s_at, MiaPaca-2): 1.52
Mean (MiaPaca-2 * PA) (gene CIDEB, probeset 11752838_s_at, MiaPaca-2, PA-treated): 5.52
Fold-Change (MiaPaca-2 * PA vs. MiaPaca-2 * control) [12]: 1.65
Mean (MiaPaca-2 * PA) [12]: 5.48
Fold-Change (MiaPaca-2 * PA vs. MiaPaca-2 * control) [13]: 1.56
Mean (MiaPaca-2 * PA) [13]: 7.43
Fold-Change (MiaPaca-2 * PA vs. MiaPaca-2 * control) [14]: 1.61
Mean (MiaPaca-2 * PA) [14]: 7.37
Fold-Change (MiaPaca-2 * PA vs. MiaPaca-2 * control) [15]: 1.54
Mean (MiaPaca-2 * PA) [15]: 6.68
Fold-Change (MiaPaca-2 * PA vs. MiaPaca-2 * control) [16]: 1.59
Mean (MiaPaca-2 * PA) [16]: 10.46
Fold-Change (MiaPaca-2 * PA vs. MiaPaca-2 * control) [17]: 1.56
Mean (MiaPaca-2 * PA) [17]: 11.54
Fold-Change (MiaPaca-2 * PA vs. MiaPaca-2 * control) (gene DUSP2, probeset 11721695_s_at, MiaPaca-2): 1.51
Mean (MiaPaca-2 * PA) (gene DUSP2, probeset 11721695_s_at, MiaPaca-2, PA-treated): 7.47
Fold-Change (MiaPaca-2 * PA vs. MiaPaca-2 * control) (gene DUSP5, probeset 11717863_a_at, MiaPaca-2): 1.52
Mean (MiaPaca-2 * PA) (gene DUSP5, probeset 11717863_a_at, MiaPaca-2, PA-treated): 7.89
Fold-Change (MiaPaca-2 * PA vs. MiaPaca-2 * control) (gene DUSP6, probeset 11741980_a_at, MiaPaca-2): 1.53
Mean (MiaPaca-2 * PA) (gene DUSP6, probeset 11741980_a_at, MiaPaca-2, PA-treated): 10.54
Fold-Change (MiaPaca-2 * PA vs. MiaPaca-2 * control) [18]: 1.65
Mean (MiaPaca-2 * PA) [18]: 7.37
Fold-Change (MiaPaca-2 * PA vs. MiaPaca-2 * control) [19]: 1.60
Mean (MiaPaca-2 * PA) [19]: 10.76
Fold-Change (MiaPaca-2 * PA vs. MiaPaca-2 * control) [20]: 1.55
Mean (MiaPaca-2 * PA) [20]: 6.51
Fold-Change (MiaPaca-2 * PA vs. MiaPaca-2 * control) [21]: 1.61
Mean (MiaPaca-2 * PA) [21]: 10.11
Fold-Change (MiaPaca-2 * PA vs. MiaPaca-2 * control) [22]: 1.66
Mean (MiaPaca-2 * PA) [22]: 7.82
Fold-Change (MiaPaca-2 * PA vs. MiaPaca-2 * control) (gene EIF4A2 /// SNORA4, probeset 11757137_s_at, MiaPaca-2): 1.51
Mean (MiaPaca-2 * PA) (gene EIF4A2 /// SNORA4, probeset 11757137_s_at, MiaPaca-2, PA-treated): 5.63
Fold-Change (MiaPaca-2 * PA vs. MiaPaca-2 * control) (gene EREG, probeset 11763822_at, MiaPaca-2): 1.52
Mean (MiaPaca-2 * PA) (gene EREG, probeset 11763822_at, MiaPaca-2, PA-treated): 6.66
Fold-Change (MiaPaca-2 * PA vs. MiaPaca-2 * control) (gene FLJ36031, probeset 11739442_s_at, MiaPaca-2): 1.53
Mean (MiaPaca-2 * PA) (gene FLJ36031, probeset 11739442_s_at, MiaPaca-2, PA-treated): 8.29
Fold-Change (MiaPaca-2 * PA vs. MiaPaca-2 * control) [23]: 1.61
Mean (MiaPaca-2 * PA) [23]: 7.33
Fold-Change (MiaPaca-2 * PA vs. MiaPaca-2 * control) (gene FOSL1, probeset 11724479_x_at, MiaPaca-2): 1.52
Mean (MiaPaca-2 * PA) (gene FOSL1, probeset 11724479_x_at, MiaPaca-2, PA-treated): 6.50
Fold-Change (MiaPaca-2 * PA vs. MiaPaca-2 * control) [24]: 1.56
Mean (MiaPaca-2 * PA) [24]: 8.39
Fold-Change (MiaPaca-2 * PA vs. MiaPaca-2 * control) (gene GBP1, probeset 11726328_x_at, MiaPaca-2): 1.50
Mean (MiaPaca-2 * PA) (gene GBP1, probeset 11726328_x_at, MiaPaca-2, PA-treated): 5.03
Fold-Change (MiaPaca-2 * PA vs. MiaPaca-2 * control) (gene HERPUD1, probeset 11741510_a_at, MiaPaca-2): 1.50
Mean (MiaPaca-2 * PA) (gene HERPUD1, probeset 11741510_a_at, MiaPaca-2, PA-treated): 9.22
Fold-Change (MiaPaca-2 * PA vs. MiaPaca-2 * control) [25]: 1.60
Mean (MiaPaca-2 * PA) [25]: 8.79
Fold-Change (MiaPaca-2 * PA vs. MiaPaca-2 * control) [26]: 1.59
Mean (MiaPaca-2 * PA) [26]: 6.86
Fold-Change (MiaPaca-2 * PA vs. MiaPaca-2 * control) (gene HMOX1, probeset 11753446_x_at, MiaPaca-2): 1.50
Mean (MiaPaca-2 * PA) (gene HMOX1, probeset 11753446_x_at, MiaPaca-2, PA-treated): 6.67
